Test system: callose deposition
Assay: Callose deposition in Arabidopsis after Peronospora parasitica infection
Format: in vivo
Conditions: positive control plants treated with BABA
Procedure: This is represented by the disease index on the Y axis. […] Resistance assays were performed as described previously (Plant Cell 1996, 8, 1225-1237; Plant cell 1998, 10, 1571-1580). B. KO of RKS4 (rks4-1; increased expression of N-terminus, see FIG. 4) also increases resistance to Peronospora parasitica, although less than the positive control induced with β-aminobutyric acid (BABA). Plants were scored using an arbitrary scale I-IV, in which I means normal to very slight symptoms and IV means severe symptoms to death. C. […] Both tests were performed as described in (Plant Cell., 2005, 17, 987-999).
Callose deposition was observed on Arabidopsis leaves after infection with Hyaloperonospora parasitica essentially as described by Ton et al. (Plant Cell (2005) 17(3):987-999).

## CC(N)CC(=O)O (stereo not drawn) [BABA, β-aminobutyric acid]
  Callose deposition upon treatment: increased

— patent US8680367B2, “Method to prime plants in order to increase their pathogen resistance” (priority 2004, dated 2014)
